In patent US10881699B2, “Cosmetic compositions” (Mary Kay Inc., priority 2014, dated 2021):

Tests used:
MMP3 = target: T1, MMP3 (Homo sapiens, UniProt P08254); assay: Matrix metalloproteinase enzyme activity assay, MMP3; type: biochemical; settings: thiopeptide chromogenic substrate
T1 construct: purchased BioMol International AK-400
Description: (§1) Matrix Metalloproteinase Enzyme Activity (MMP3; MMP9) Assay: An in vitro matrix metalloprotease (MMP) inhibition assay. MMPs are extracellular proteases that play a role in many normal and disease states by virtue of their broad substrate specificity. MMP3 substrates include collagens, fibronectins, and laminin; while MMP9 substrates include collagen VII, fibronectins and laminin. Using Colorimetric Drug Discovery kits from BioMol International for MMP3 (AK-400) and MMP-9 (AK-410), this assay is designed to measure protease activity of MMPs using a thiopeptide as a chromogenic substrate (Ac-PLG42-mercapto-4-methyl-pentanoylRG-OC2H5)5,6. The MMP cleavage site peptide bond is replaced by a thioester bond in the thiopeptide. Hydrolysis of this bond by an MMP produces a sulfhydryl group, which reacts with DTNB [5,5′-dithiobis(2-nitrobenzoic acid), Ellman's reagent] to form 2-nitro-5-thiobenzoic acid, which can be detected by its absorbance at 412 nm (c=13,600 M-1 cm-1 at pH 6.0 and above 7). The active ingredients, any one of the combination of ingredients, or compositions having said combinations disclosed in the specification can be assayed.

MMP9 = target: T2, MMP9 (Homo sapiens, UniProt P14780); assay: Matrix metalloproteinase enzyme activity assay, MMP9; type: biochemical; settings: thiopeptide chromogenic substrate
T2 construct: purchased BioMol International AK-410
Description: as §1

[1] = tested on: procollagen peptide production by human epidermal fibroblasts; assay: Collagen stimulation assay, procollagen peptide ELISA; type: cell-based; settings: treated for 3 days
Description: Collagen Stimulation Assay:
Collagen is an extracellular matrix protein critical for skin structure. Increased synthesis of collagen helps improve skin firmness and elasticity. This bioassay can be used to examine the effect of any one of the active ingredients, combination of ingredients, or compositions having said combinations disclosed in the specification on the production of procollagen peptide (a precursor to collagen) by human epidermal fibroblasts. The endpoint of this assay is a spectrophotometric measurement that reflects the presence of procollagen peptide and cellular viability. The assay employs the quantitative sandwich enzyme immunoassay technique whereby a monoclonal antibody specific for procollagen peptide was been pre-coated onto a microplate. […] Following a wash to remove any unbound antibody-enzyme reagent, a substrate solution was added to the wells and color develops in proportion to the amount of procollagen peptide bound in the initial step using a microplate reader for detection at 450 nm. The color development was stopped and the intensity of the color was measured. […] Following incubation, cell culture medium was collected and the amount of procollagen peptide secretion quantified using a sandwich enzyme linked immuno-sorbant assay (ELISA) from Takara (#MK101).

T1 sequence (P08254 100-272 limits assumed): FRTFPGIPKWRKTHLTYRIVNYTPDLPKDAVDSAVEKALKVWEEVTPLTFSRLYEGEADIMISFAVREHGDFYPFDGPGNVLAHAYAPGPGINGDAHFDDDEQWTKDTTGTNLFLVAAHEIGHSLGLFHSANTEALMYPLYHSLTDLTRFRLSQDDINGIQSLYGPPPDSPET
T2 sequence (P14780 107-444 limits assumed): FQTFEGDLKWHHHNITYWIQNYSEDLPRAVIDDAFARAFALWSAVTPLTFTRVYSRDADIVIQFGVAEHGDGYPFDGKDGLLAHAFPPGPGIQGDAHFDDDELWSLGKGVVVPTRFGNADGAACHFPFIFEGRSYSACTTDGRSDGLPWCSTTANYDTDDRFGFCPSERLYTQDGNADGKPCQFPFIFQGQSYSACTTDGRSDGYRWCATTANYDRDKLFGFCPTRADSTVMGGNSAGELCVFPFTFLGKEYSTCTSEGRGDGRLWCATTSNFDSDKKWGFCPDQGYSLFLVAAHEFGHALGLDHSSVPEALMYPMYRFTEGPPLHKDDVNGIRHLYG

| Compound | % MMP3 Activity (MMP3) | % MMP9 Activity (MMP9) | % Increase of Type I Collagen Production [1] |
| --- | --- | --- | --- |
| CCCCCCCCC(CCCCCC)C(=O)OC[C@H](OC(=O)C(CCCCCC)CCCCCCCC)[C@H]1OC(=O)C(OC(=O)C(CCCCCC)CCCCCCCC)=C1OC(=O)C(CCCCCC)CCCCCCCC (stereo partly shown) [Tetrahexyldecyl ascorbate] | 38% | 11% | 50% |
| Trifluoroacetyl tripeptide-2 | – | – | 23% |
